Values of other authors as cited in patent US20100209350A1, “Biomarkers for Adipose Tissue Activity” (priority 2008, published 2010).

Tested on: adiponectin
Settings: patient responding to the therapy; sample such as blood; general statement, no study described

## CN(C)C(=N)N=C(N)N [metformin]
  increase of adiponectin level from a reference value: about 20%
